According to patent US10738030B2, “Modulators of cystic fibrosis transmembrane conductance regulator” (Vertex Pharmaceuticals Incorporated, priority 2016, dated 2020):

Biological target: T1, F508del (Homo sapiens, UniProt P13569, DEL508-508)
T1 construct: expressed in transfected cells
Assay: Membrane potential optical assay (FRET voltage-sensor dyes), identification of correction compounds
Assay type: cell-based
Conditions: NIH3T3 cells stably expressing F508del, procedures described above; for Emax: maximum efficacy, read-out: Max Efficacy; for EC50: modulation of CFTR activity
Procedure: (§1) NIH3T3 mouse fibroblasts stably expressing F508del are used for optical measurements of membrane potential. The cells are maintained at 37° C. in 5% CO2 and 90% humidity in Dulbecco's modified Eagle's medium supplemented with 2 mM glutamine, 10% fetal bovine serum, 1×NEAA, β-ME, 1× pen/strep, and 25 mM HEPES in 175 cm^2 culture flasks. For all optical assays, the cells were seeded at 12,000 cells/well in 384-well matrigel-coated plates and cultured for 18-24 hrs at 37° C. for the potentiator assay. For the correction assays, the cells are cultured at 37° C. with and without compounds for 18-24 hours.
Membrane potential optical methods for assaying F508del modulation properties of compounds.
The optical membrane potential assay utilized voltage-sensitive FRET sensors described by Gonzalez and Tsien (See Gonzalez, J. E. and R. Y. Tsien (1995) “Voltage sensing by fluorescence resonance energy transfer in single cells” Biophys J 69(4): 1272-80, and Gonzalez, J. E. and R. Y. Tsien (1997) “Improved indicators of cell membrane potential that use fluorescence resonance energy transfer” Chem Biol 4(4): 269-77) in combination with instrumentation for measuring fluorescence changes such as the Voltage/Ion Probe Reader (VIPR) (See, Gonzalez, J. E., K. Oades, et al. (1999) “Cell-based assays and instrumentation for screening ion-channel targets” Drug Discov Today 4(9): 431-439).
These voltage sensitive assays are based on the change in fluorescence resonant energy transfer (FRET) between the membrane-soluble, voltage-sensitive dye, DiSBAC2(3), and a fluorescent phospholipid, CC2-DMPE, which is attached to the outer leaflet of the plasma membrane and acts as a FRET donor. Changes in membrane potential (Vm) cause the negatively charged DiSBAC2(3) to redistribute across the plasma membrane and the amount of energy transfer from CC2-DMPE changes accordingly. The changes in fluorescence emission were monitored using VIPR™ II, which is an integrated liquid handler and fluorescent detector designed to conduct cell-based screens in 96- or 384-well microtiter plates.
To identify small molecules that correct the trafficking defect associated with F508del; a single-addition HTS assay format was developed. The cells were incubated in serum-free medium for 16 hrs at 37° C. in the presence or absence (negative control) of test compound. As a positive control, cells plated in 384-well plates were incubated for 16 hrs at 27° C. to “temperature-correct” F508del. The cells were subsequently rinsed 3× with Krebs Ringers solution and loaded with the voltage-sensitive dyes. To activate F508del, 10 μM forskolin and the CFTR potentiator, genistein (20 μM), were added along with Cl^−-free medium to each well. The addition of Cl^−-free medium promoted Cl^− efflux in response to F508del activation and the resulting membrane depolarization was optically monitored using the FRET-based voltage-sensor dyes.
• Bath Solution #1: (in mM) NaCl 160, KCl 4.5, CaCl2 2, MgCl2 1, HEPES 10, pH 7.4 with NaOH. • Chloride-free bath solution: Chloride salts in Bath Solution #1 (above) are substituted with gluconate salts. • CC2-DMPE: Prepared as a 10 mM stock solution in DMSO and stored at −20° C. • DiSBAC2(3): Prepared as a 10 mM stock in DMSO and stored at −20° C. Cell Culture
as §1, with “seeded at 30,000/well in 384-well” for “seeded at 12,000 cells/well in 384-well”, “cultured for 2 hrs at” for “cultured for 18-24 hrs at”, “37° C. before culturing at 27° C. for 24 hrs for the” for “37° C. for the”, “cultured at 27° C. or 37° C.” for “cultured at 37° C.”, “compounds for 16-24 hours.” for “compounds for 18-24 hours.”

T1 sequence (P13569 with tags, fused parts or gaps DEL508-508): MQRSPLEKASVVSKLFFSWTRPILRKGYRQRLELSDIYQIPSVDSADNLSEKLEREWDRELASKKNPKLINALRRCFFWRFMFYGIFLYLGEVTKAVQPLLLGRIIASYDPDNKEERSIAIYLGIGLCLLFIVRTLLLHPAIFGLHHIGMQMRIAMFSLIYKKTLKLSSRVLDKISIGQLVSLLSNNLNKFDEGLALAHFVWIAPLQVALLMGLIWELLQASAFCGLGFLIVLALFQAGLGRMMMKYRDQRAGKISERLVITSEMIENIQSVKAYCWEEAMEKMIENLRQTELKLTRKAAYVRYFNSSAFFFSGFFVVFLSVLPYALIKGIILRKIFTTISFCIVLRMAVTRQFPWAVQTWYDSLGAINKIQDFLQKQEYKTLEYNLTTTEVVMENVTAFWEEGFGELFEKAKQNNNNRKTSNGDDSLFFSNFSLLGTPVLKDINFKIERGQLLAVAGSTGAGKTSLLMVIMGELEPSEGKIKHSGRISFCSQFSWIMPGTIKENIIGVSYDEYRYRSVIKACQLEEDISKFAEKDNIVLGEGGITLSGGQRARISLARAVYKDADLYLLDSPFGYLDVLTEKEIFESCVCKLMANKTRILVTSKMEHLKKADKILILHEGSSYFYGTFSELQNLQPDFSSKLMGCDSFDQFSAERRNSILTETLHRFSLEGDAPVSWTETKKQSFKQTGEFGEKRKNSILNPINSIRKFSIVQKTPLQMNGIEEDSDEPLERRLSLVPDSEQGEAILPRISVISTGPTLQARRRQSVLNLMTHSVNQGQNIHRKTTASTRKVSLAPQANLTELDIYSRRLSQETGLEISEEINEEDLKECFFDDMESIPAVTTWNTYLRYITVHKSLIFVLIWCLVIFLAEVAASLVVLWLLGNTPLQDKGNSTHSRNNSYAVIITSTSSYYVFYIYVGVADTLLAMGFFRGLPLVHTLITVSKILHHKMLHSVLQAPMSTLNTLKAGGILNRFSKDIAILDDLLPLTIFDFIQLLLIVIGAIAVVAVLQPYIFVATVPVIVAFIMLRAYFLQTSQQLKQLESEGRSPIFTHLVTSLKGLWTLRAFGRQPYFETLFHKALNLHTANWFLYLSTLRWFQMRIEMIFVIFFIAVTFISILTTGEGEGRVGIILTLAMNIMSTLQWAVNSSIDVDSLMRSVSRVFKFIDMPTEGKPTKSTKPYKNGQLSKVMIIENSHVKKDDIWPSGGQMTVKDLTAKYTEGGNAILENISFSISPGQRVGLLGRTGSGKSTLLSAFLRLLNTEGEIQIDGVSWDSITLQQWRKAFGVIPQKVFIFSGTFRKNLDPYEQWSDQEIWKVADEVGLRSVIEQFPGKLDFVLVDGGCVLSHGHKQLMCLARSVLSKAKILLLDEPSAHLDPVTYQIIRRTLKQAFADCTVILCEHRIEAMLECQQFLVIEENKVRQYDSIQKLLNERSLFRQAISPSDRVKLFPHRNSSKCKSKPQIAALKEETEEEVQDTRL

Structure (SMILES) | Emax | EC50
COCC(C)Oc1nc(-c2cc(F)cc(OCC(C)C)c2)ccc1C(=O)NS(=O)(=O)c1cccc(N)n1 (centres unmarked) [Compound 23, N-[(6-amino-2-pyridyl)sulfonyl]-6-(3-fluoro-5-isobutoxy-phenyl)-2-(2-methoxy-1-methyl-ethoxy)pyridine-3-carboxamide] | 30 to 80% | 3 to 10 µM
CC(C)COc1cc(F)cc(-c2ccc(C(=O)NS(=O)(=O)c3cccc(N)n3)c(OC(C)CC(C)C)n2)c1 (centres unmarked) [Compound 24, N-[(6-amino-2-pyridyl)sulfonyl]-2-(1,3-dimethylbutoxy)-6-(3-fluoro-5-isobutoxy-phenyl)pyridine-3-carboxamide] | > 80% | < 3 µM
CC(C)COc1cc(F)cc(-c2ccc(C(=O)NS(=O)(=O)c3cccc(N)n3)c(OC(C)C(C)(C)C)n2)c1 (centres unmarked) [Compound 25, N-[(6-amino-2-pyridyl)sulfonyl]-6-(3-fluoro-5-isobutoxy-phenyl)-2-(1,2,2-trimethylpropoxy)pyridine-3-carboxamide] | 30 to 80% | < 3 µM
CC(C)COc1cc(F)cc(-c2ccc(C(=O)NS(=O)(=O)c3cccc(N)n3)c(OC(C(C)C)C(C)C)n2)c1 [Compound 26, N-[(6-amino-2-pyridyl)sulfonyl]-6-(3-fluoro-5-isobutoxy-phenyl)-2-(1-isopropyl-2-methyl-propoxy)pyridine-3-carboxamide] | 30 to 80% | < 3 µM
CCCOc1nc(-c2cc(F)cc(OCC(C)C)c2)ccc1C(=O)NS(=O)(=O)c1cccc(N)n1 [Compound 27, N-[(6-amino-2-pyridyl)sulfonyl]-6-(3-fluoro-5-isobutoxy-phenyl)-2-propoxy-pyridine-3-carboxamide] | > 80% | < 3 µM
C/C=C/COc1nc(-c2cc(F)cc(OCC(C)C)c2)ccc1C(=O)NS(=O)(=O)c1cccc(N)n1 [Compound 28, N-[(6-amino-2-pyridyl)sulfonyl]-2-[(E)-but-2-enoxy]-6-(3-fluoro-5-isobutoxy-phenyl)pyridine-3-carboxamide] | 30 to 80% | < 3 µM
CC[C@H](C)Oc1nc(-c2cc(F)cc(OCC(C)C)c2)ccc1C(=O)NS(=O)(=O)c1cccc(N)n1 [Compound 29, N-[(6-amino-2-pyridyl)sulfonyl]-6-(3-fluoro-5-isobutoxy-phenyl)-2-[(1S)-1-methylpropoxy]pyridine-3-carboxamide] | 30 to 80% | < 3 µM
CCOc1nc(-c2cc(F)cc(OCC(C)C)c2)ccc1C(=O)NS(=O)(=O)c1cccc(N)n1 [Compound 30, N-[(6-amino-2-pyridyl)sulfonyl]-2-ethoxy-6-(3-fluoro-5-isobutoxy-phenyl)pyridine-3-carboxamide] | 30 to 80% | < 3 µM
CC(C)COc1cc(F)cc(-c2ccc(C(=O)NS(=O)(=O)c3cccc(N)n3)c(N(C)C(C)C)n2)c1 [Compound 31, N-[(6-amino-2-pyridyl)sulfonyl]-6-(3-fluoro-5-isobutoxy-phenyl)-2-[isopropyl(methyl)amino]pyridine-3-carboxamide] | > 80% | < 3 µM
CC(C)COc1cc(F)cc(-c2ccc(C(=O)NS(=O)(=O)c3cccc(N)n3)c(OCC(C)(C)C)n2)c1 [Compound 32, N-[(6-amino-2-pyridyl)sulfonyl]-2-(2,2-dimethylpropoxy)-6-(3-fluoro-5-isobutoxy-phenyl)pyridine-3-carboxamide] | > 80% | < 3 µM
CC(C)COc1cc(F)cc(-c2ccc(C(=O)NS(=O)(=O)c3cccc(N)n3)c(OC(C(F)(F)F)C(F)(F)F)n2)c1 [Compound 33, N-[(6-amino-2-pyridyl)sulfonyl]-6-(3-fluoro-5-isobutoxy-phenyl)-2-[2,2,2-trifluoro-1-(trifluoromethyl)ethoxy]pyridine-3-carboxamide] | 30 to 80% | < 3 µM
CCC(Oc1nc(-c2cc(F)cc(OCC(C)C)c2)ccc1C(=O)NS(=O)(=O)c1cccc(N)n1)C(C)(C)C (centres unmarked) [Compound 34] | > 80% | < 3 µM
CC#CCCOc1nc(-c2cc(F)cc(OCC(C)C)c2)ccc1C(=O)NS(=O)(=O)c1cccc(N)n1 [Compound 35, N-[(6-amino-2-pyridyl)sulfonyl]-6-(3-fluoro-5-isobutoxy-phenyl)-2-pent-3-ynoxy-pyridine-3-carboxamide] | 30 to 80% | < 3 µM
CC(C)COc1cc(F)cc(-c2ccc(C(=O)NS(=O)(=O)c3cccc(N)n3)c(OC(C)CC(C)(C)C)n2)c1 (centres unmarked) [Compound 36, N-[(6-amino-2-pyridyl)sulfonyl]-6-(3-fluoro-5-isobutoxy-phenyl)-2-(1,3,3-trimethylbutoxy)pyridine-3-carboxamide] | 30 to 80% | < 3 µM
CC(C)=C(C)c1nc(-c2cc(F)cc(OCC(C)C)c2)ccc1C(=O)NS(=O)(=O)c1cccc(N)n1 [Compound 37, N-[(6-amino-2-pyridyl)sulfonyl]-2-(1,2-dimethylprop-1-enyl)-6-(3-fluoro-5-isobutoxy-phenyl)pyridine-3-carboxamide] | 30 to 80% | < 3 µM
CC(C)COc1cc(F)cc(-c2ccc(C(=O)NS(=O)(=O)c3cccc(N)n3)c(OCC(F)F)n2)c1 [Compound 38, N-[(6-amino-2-pyridyl)sulfonyl]-2-(2,2-difluoroethoxy)-6-(3-fluoro-5-isobutoxy-phenyl)pyridine-3-carboxamide] | 30 to 80% | 3 to 10 µM
CCCNc1cccc(S(=O)(=O)NC(=O)c2ccc(-c3cc(F)cc(OCC(C)C)c3)nc2NCCC)n1 [Compound 39, 6-(3-fluoro-5-isobutoxy-phenyl)-2-(propylamino)-N-[[6-(propylamino)-2-pyridyl]sulfonyl]pyridine-3-carboxamide] | 30 to 80% | < 3 µM
CCC(Oc1nc(-c2cc(F)cc(OCC(C)C)c2)ccc1C(=O)NS(=O)(=O)c1cccc(N)n1)C(C)C (centres unmarked) [Compound 40, N-[(6-amino-2-pyridyl)sulfonyl]-2-(1-ethyl-2-methyl-propoxy)-6-(3-fluoro-5-isobutoxy-phenyl)pyridine-3-carboxamide] | 30 to 80% | < 3 µM
CC(C)COc1cc(F)cc(-c2ccc(C(=O)NS(=O)(=O)c3cccc(N)n3)c(N(C(C)C)C(C)C)n2)c1 [Compound 41, N-[(6-amino-2-pyridyl)sulfonyl]-2-(diisopropylamino)-6-(3-fluoro-5-isobutoxy-phenyl)pyridine-3-carboxamide] | > 80% | < 3 µM
C=CC(C)Oc1nc(-c2cc(F)cc(OCC(C)C)c2)ccc1C(=O)NS(=O)(=O)c1cccc(N)n1 (centres unmarked) [Compound 42, N-[(6-amino-2-pyridyl)sulfonyl]-6-(3-fluoro-5-isobutoxy-phenyl)-2-(1-methylallyloxy)pyridine-3-carboxamide] | > 80% | < 3 µM
C=CCOc1nc(-c2cc(F)cc(OCC(C)C)c2)ccc1C(=O)NS(=O)(=O)c1cccc(N)n1 [Compound 43, 2-allyloxy-N-[(6-amino-2-pyridyl)sulfonyl]-6-(3-fluoro-5-isobutoxy-phenyl)pyridine-3-carboxamide] | 30 to 80% | < 3 µM
CCC(C)(C)Oc1nc(-c2cc(F)cc(OCC(C)C)c2)ccc1C(=O)NS(=O)(=O)c1cccc(N)n1 [Compound 44, N-[(6-amino-2-pyridyl)sulfonyl]-2-(1,1-dimethylpropoxy)-6-(3-fluoro-5-isobutoxy-phenyl)pyridine-3-carboxamide] | > 80% | < 3 µM
